Source: patent US20060165612A1, “Compositions for hygienic hand disinfection and disinfectant handwashing” (priority 2005, published 2006)

solubility in water: 0.1 % by weight
Structure (SMILES): CCCCC(CC)COCC(O)CO (stereo not shown) [1-(2-ethylhexyl)glycerol ether, 1-(2-Ethylhexyl)glycerol ether]
